From US6653478B2, “Substituted benzimidazol-2-ones as vasopressin receptor antagonists and neuropeptide Y modulators” (Ortho-McNeil Pharmaceutical, Inc., priority 2000, dated 2003)

Assays:
Set-up in all cases: expressed in transfected cells; host or cells: HEK-293 (membranes)
[1] = biological target: human V2 receptor (Homo sapiens, UniProt P30518); test: V2 binding assay (3H-AVP displacement, HEK-293 membranes); conditions: 1.0 μM compound; for inhibition at 1 µM: read-out: V2@1.0, % Inh
Procedure: (§1) V1a, V1b or V2 Binding Assay
(§2) Receptor binding studies were performed using recombinant human V1a, V1b or V2 receptors. Cellular membranes were harvested from HEK-293 cells transfected to express either the V1a, V1b or V2 receptors. Compounds were evaluated for their ability to displace ^3H-arginine vasopressin (^3H-AVP; specific activity 40-87 Ci/mmol; NEN Life Sciences, Boston, Mass.). Compounds were solubilized in dimethylsulfoxide (DMSO) and diluted to working concentration of 10% DMSO with assay buffer (50 mM Tris, 5 mM MgCl2, 0.1% BSA, pH 7.5). Assay buffer was supplemented with several protease inhibitors (1 mM Pefabloc, 5 μg/ml aprotinin/leupeptin/pepstatin A, 50 μg/ml bacitracin; Sigma Chemical, St. Louis, Mo.). Non-specific binding was determined using 1.25 μM arginine vasopressin (AVP; Peninsula Labs, Belmont, Calif.). Assay reagents and test compounds were added to 96-well round bottom polypropylene plates (145 μl buffer, 5 μl compound in 10% DMSO, 25 μl buffer containing 10,000 cpm tracer, 25 μl cell membrane). After incubation for 1 hour at room temperature, the well contents were aspirated across a Unifilter GF/C plate (Packard Instrument, Downers Grove, Ill.) which had been presoaked in 0.3% polyethyleneimine to prevent peptide sticking. The wells were washed repeatedly with cold saline containing 0.05% Tween 20. The plate was then dried and 25 μl Microscint-20 cocktail (Packard Instruments) added to each well. The plates were sealed and counted on a TopCount scintillation counter (Packard Instruments) using quench correction.

[2] = biological target: T1, human V1b receptor (Homo sapiens, UniProt P47901); test: V1b binding assay (3H-AVP displacement, HEK-293 membranes); conditions: for inhibition at 1 µM: 1.0 μM compound, read-out: V1b@1.0, % Inh
T1 sequence (P47901 1-424): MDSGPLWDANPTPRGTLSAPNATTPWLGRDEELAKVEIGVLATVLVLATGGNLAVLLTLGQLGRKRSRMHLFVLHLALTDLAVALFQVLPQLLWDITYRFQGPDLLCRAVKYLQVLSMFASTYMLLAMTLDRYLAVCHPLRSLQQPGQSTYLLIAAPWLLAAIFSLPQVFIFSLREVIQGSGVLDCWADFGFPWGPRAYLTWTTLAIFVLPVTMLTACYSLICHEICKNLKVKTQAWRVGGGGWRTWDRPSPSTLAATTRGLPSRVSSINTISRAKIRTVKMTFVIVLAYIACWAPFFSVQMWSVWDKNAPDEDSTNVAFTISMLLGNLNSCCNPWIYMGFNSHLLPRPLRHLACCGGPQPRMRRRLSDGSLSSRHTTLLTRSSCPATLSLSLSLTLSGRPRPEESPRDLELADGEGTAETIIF
Procedure: as §1, §2

[3] = biological target: human V1a receptor (Homo sapiens, UniProt P37288); test: V1a binding assay (3H-AVP displacement, HEK-293 membranes); conditions: for inhibition at 1 µM: 1.0 μM compound, read-out: V1a@1.0, % Inh
Sequence of human V1a receptor (P37288 whole entry): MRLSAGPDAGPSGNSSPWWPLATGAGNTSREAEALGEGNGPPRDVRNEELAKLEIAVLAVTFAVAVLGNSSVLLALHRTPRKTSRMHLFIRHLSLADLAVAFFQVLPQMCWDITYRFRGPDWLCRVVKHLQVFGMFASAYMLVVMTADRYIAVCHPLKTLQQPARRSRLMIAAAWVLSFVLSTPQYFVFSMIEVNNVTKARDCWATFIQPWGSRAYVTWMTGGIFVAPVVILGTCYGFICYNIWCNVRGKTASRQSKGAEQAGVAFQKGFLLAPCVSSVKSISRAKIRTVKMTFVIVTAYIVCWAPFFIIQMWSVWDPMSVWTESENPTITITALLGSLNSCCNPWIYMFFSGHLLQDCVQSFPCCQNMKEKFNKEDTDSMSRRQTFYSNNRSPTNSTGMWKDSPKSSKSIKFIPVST
Procedure: as §1, §2

Sequence of human V2 receptor (P30518 whole entry): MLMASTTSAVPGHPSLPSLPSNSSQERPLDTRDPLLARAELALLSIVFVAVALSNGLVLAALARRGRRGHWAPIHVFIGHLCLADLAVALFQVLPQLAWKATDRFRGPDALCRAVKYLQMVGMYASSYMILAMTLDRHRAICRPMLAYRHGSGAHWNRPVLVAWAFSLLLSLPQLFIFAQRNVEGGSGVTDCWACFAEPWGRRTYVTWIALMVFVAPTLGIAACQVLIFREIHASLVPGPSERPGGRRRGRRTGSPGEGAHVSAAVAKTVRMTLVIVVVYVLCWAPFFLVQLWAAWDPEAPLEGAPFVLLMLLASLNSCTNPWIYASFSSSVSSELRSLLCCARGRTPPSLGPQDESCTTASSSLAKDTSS

Compound	inhibition at 1 µM [1]	inhibition at 1 µM [2]	IC50 [3]	IC50 [2]	inhibition at 1 µM [3]	V2@1.0, % Inh ([1]; 1 µM)
CCCN(CCC)CCCn1c(=O)n(C2CCN(C(=O)NC(c3ccccc3)c3ccccc3)CC2)c2ccccc21 [Compound 80, 1-[(N1-piperidinocarbonylbiphenylmethylamino)-4-yl]-3-(3-N,N-dipropylaminopropyl)-1,3-dihydrobenzimidazol-2-one]	11%	38%	170 nM	–	–	–
O=c1n(CCCNCC2CCCCC2)c2ccccc2n1C1CCN(C(=S)NC(c2ccccc2)c2ccccc2)CC1 [Compound 88, 1-[(N1-piperidinocarbothioylbiphenylmethylamino)-4-yl]-3-(3-cyclohexylmethylaminopropyl)-1,3-dihydrobenzimidazol-2-one]	3%	–	36 nM	1000 nM	–	–
O=c1n(CCCN2CCCCC2)c2cc(C(F)(F)F)ccc2n1C1CCN(C(=S)NC(c2ccccc2)c2ccccc2)CC1 [Compound 121]	3%	39%	330 nM	–	–	–
CCCC1CCN(CCCn2c(=O)n(C3CCN(C(=S)NC(c4ccccc4)c4ccccc4)CC3)c3ccccc32)CC1 [Compound 122, 1-[(N1-piperidinocarbothioylbiphenylmethylamino)-4-yl]-3-(4-propylpiperidin-1-yl-propyl)-1,3-dihydrobenzimidazol-2-one]	0%	70%	52 nM	250 nM	–	–
COc1cccc(CNC(=S)N2CCC(n3c(=O)n(CCCN4CCCC4)c4ccccc43)CC2)c1OC [Compound 123, 1-[(N1-Piperidinocarbothioyl-(2,3-dimethoxybenzyl)amino)-4-yl]-3-(3-pyrrolidinylpropyl)-1,3-dihydrobenzimidazol-2-one]	2%	31%	430 nM	–	–	–
O=c1n(CCCN2CCCCC2)c2ccccc2n1C1CCN(C(=S)NCc2ccc(Cl)cc2)CC1 [Compound 124, 1-[(N1-piperidinocarbothioyl-4-chlorobenzylamino)-4-yl]-3-(3-N-piperidinylpropyl)-1,3-dihydrobenzimidazol-2-one]	3%	44%	29 nM	–	–	–
O=c1n(CCCN2CCCCC2)c2ccccc2n1C1CCN(C(=S)NC2CCCCC2)CC1 [Compound 125, 1-[(N1-piperidinocarbothioylcyclohexylamino)-4-yl]-3-(3-N-piperidinylpropyl)-1,3-dihydrobenzimidazol-2-one]	0%	35%	390 nM	–	–	–
O=c1n(CCCN2CCCCC2)c2ccccc2n1C1CCN(C(=S)NC(c2ccccc2)(c2ccccc2)c2ccccc2)CC1 [Compound 126, 1-[(N1-piperidinocarbothioyltriphenylmethylamino)-4-yl]-3-(3-N-piperidinylpropyl)-1,3-dihydrobenzimidazol-2-one]	0%	0%	–	–	0%	–
O=c1n(CCCN2CCCCC2)c2ccccc2n1C1CCN(C(=S)NCc2ccccc2-c2ccccc2)CC1 [Compound 127]	–	45%	22 nM	–	–	0%
CCCNC(=S)N1CCC(n2c(=O)n(CCCN3CCCCC3)c3ccccc32)CC1 [Compound 128, 1-[(N1-piperidinocarbothioylpropylamino)-4-yl]-3-(3-N-piperidinylpropyl)-1,3-dihydrobenzimidazol-2-one]	0%	31%	–	–	12%	–
O=c1n(CCCN2CCCCC2)c2ccccc2n1C1CCN(C(=S)N[C@]23C[C@H]4C[C@H](C[C@H](C4)C2)C3)CC1 [Compound 129, 1-[(N1-piperidinocarbothioyl-1-adamantylamino)-4-yl]-3-(3-N-piperidinylpropyl)-1,3-dihydrobenzimidazol-2-one]	3%	53%	73 nM	–	–	–
CC(C)(C)NC(=S)N1CCC(n2c(=O)n(CCCN3CCCCC3)c3ccccc32)CC1 [Compound 130, 1-[(N1-piperidinocarbothioyl-butylamino)-4-yl]-3-(3-N-piperidinylpropyl)-1,3-dihydrobenzimidazol-2-one]	2%	26%	–	–	19%	–
O=c1n(CCCN2CCCCC2)c2ccccc2n1C1CCN(C(=S)NC2c3ccccc3-c3ccccc32)CC1 [Compound 131, 1-[(N1-piperidinocarbothioylfluorenylamino)-4-yl]-3-(3-N-piperidinylpropyl)-1,3-dihydrobenzimidazol-2-one]	0%	62%	48 nM	–	–	–
CC(C)c1ccccc1NC(=S)N1CCC(n2c(=O)n(CCCN3CCCCC3)c3ccccc32)CC1 [Compound 132, 1-[(N1-piperidinocarbothioyl-2-isopropylphenylamino)-4-yl]-3-(3-N-piperidinylpropyl)-1,3-dihydrobenzimidazol-2-one]	0%	55%	–	–	66%	–
O=c1n(CCCN2CCCCC2)c2ccccc2n1C1CCN(C(=S)NCCCc2ccccc2)CC1 [Compound 133, 1-[(N1-piperidinocarbothioylphenpropylamino)-4-yl]-3-(3-N-piperidinylpropyl)-1,3-dihydrobenzimidazol-2-one]	4%	42%	69 nM	–	–	–
O=c1n(CCCC2CCCCC2)c2ccccc2n1C1CCN(C(=S)NC(c2ccccc2)c2ccccc2)CC1 [Compound 134, 1-[(N1-Piperidinocarbothioyldiphenylmethylamino)-4-yl]-3-(3-cyclohexylpropyl)-1,3-dihydro-benzimidazol-2-one]	0%	37%	450 nM	–	–	–
COc1ccc(C(NC(=S)N2CCC(n3c(=O)n(CCCN4CCCCC4)c4ccccc43)CC2)c2ccc(OC)cc2)cc1 [Compound 136]	25%	50%	79 nM	–	–	–
CC(NC(=S)N1CCC(n2c(=O)n(CCCN3CCCCC3)c3ccccc32)CC1)c1ccc(F)cc1 (stereo not drawn) [Compound 137]	0%	41%	91 nM	–	–	–
O=C1CCCN1CCCn1c(=O)n(C2CCN(C(=S)NC(c3ccccc3)c3ccccc3)CC2)c2ccccc21 [Compound 175]	–	23%	–	–	61%	–
O=C1CCCCN1CCCn1c(=O)n(C2CCN(C(=S)NC(c3ccccc3)c3ccccc3)CC2)c2ccccc21 [Compound 176]	–	31%	–	–	59%	–
CC(C)N(CCCn1c(=O)n(C2CCN(C(=S)NC(c3ccccc3)c3ccccc3)CC2)c2ccccc21)C1CCCCC1 [Compound 177]	–	31%	147 nM	–	–	–
CCCCN(CC)CCCn1c(=O)n(C2CCN(C(=S)NC(c3ccccc3)c3ccccc3)CC2)c2ccccc21 [Compound 178]	–	43%	90 nM	–	–	–
CCN(CCCn1c(=O)n(C2CCN(C(=S)NC(c3ccccc3)c3ccccc3)CC2)c2ccccc21)C1CCCCC1 [Compound 179]	–	65%	145 nM	–	–	–
CCC1CCN(CCCn2c(=O)n(C3CCN(C(=S)NC(c4ccccc4)c4ccccc4)CC3)c3ccccc32)C(C)C1 (stereo not drawn) [Compound 180]	–	58%	67 nM	–	–	–
CC1CCCCN1CCCn1c(=O)n(C2CCN(C(=S)NC(c3ccccc3)c3ccccc3)CC2)c2ccccc21 (stereo not drawn) [Compound 181]	–	–	23 nM	150 nM	–	–
